Data taken from ChEMBL document CHEMBL4513149, “CO-ADD screening of MMV (CH) - MMV compounds” (2021).
Converted amounts (≈) assume the structure as drawn.

How the values were obtained:
HEK293 = test: cells; format: functional; details: Homo sapiens, ATCC CRL1573, HEK293; ASSAY_TEST Inhibition of Cell Viability; detection method Resazurin; Fluorescence (ex560/em590); MEDIA DMEM with 10% FBS; plate type 384well; TC; CORNING #3712; time 18 hr
Staphylococcus aureus = test: microbe, parasite or virus in culture; details: ATCC 43300, 18 h, ASSAY_TEST Inhibition of Bacterial Growth, detection method Absorption (OD600), MEDIA CAMHB, plate type 384well, NBS, CORNING #3640
Description: Antibacterial activity against Staphylococcus aureus MRSA ATCC 43300 (CO-ADD:GP_020); MIC in CAMBH media, using NBS plates, by OD(600)

Escherichia coli = test: microbe, parasite or virus in culture; details: ATCC 25922, 18 h, ASSAY_TEST Inhibition of Bacterial Growth, detection method Absorption (OD600), MEDIA CAMHB, plate type 384well, NBS, CORNING #3640
Description: Antibacterial activity against Escherichia coli ATCC 25922 (CO-ADD:GN_001); MIC in CAMBH media using NBS plates, by OD(600)

Klebsiella pneumoniae = test: microbe, parasite or virus in culture; details: ATCC 700603, 18 h, ASSAY_TEST Inhibition of Bacterial Growth, detection method Absorption (OD600), MEDIA CAMHB, plate type 384well, NBS, CORNING #3640
Description: Antibacterial activity against Klebsiella pneumoniae MDR ATCC 70063 (CO-ADD:GN_003); MIC in CAMBH media using NBS plates, by OD(600)

Pseudomonas aeruginosa = test: microbe, parasite or virus in culture; details: ATCC 27853, 18 h, ASSAY_TEST Inhibition of Bacterial Growth, detection method Absorption (OD600), MEDIA CAMHB, plate type 384well, NBS, CORNING #3640
Description: Antibacterial activity against Pseudomonas aeruginosa ATCC 27853 (CO-ADD:GN_042); MIC in CAMBH media using NBS plates, by OD(600)

Acinetobacter baumannii = test: microbe, parasite or virus in culture; details: ATCC 19606, 18 h, ASSAY_TEST Inhibition of Bacterial Growth, detection method Absorption (OD600), MEDIA CAMHB, plate type 384well, NBS, CORNING #3640
Description: Antibacterial activity against Acinetobacter baumannii ATCC 19606 (CO-ADD:GN_034); MIC in CAMBH media using NBS plates, by OD600

Candida albicans = test: microbe, parasite or virus in culture; details: ATCC 90028, ASSAY_TEST Inhibition of Fungal Growth, detection method Absorption (OD530), plate type 384well, NBS, CORNING #3640
Description: Antifungal activity against Candida albicans ATCC 90028 (CO-ADD:FG_001); MIC in YNB media using NBS plates, by OD630

Description for Cryptococcus neoformans: Antifungal activity against Cryptococcus neoformans H99 ATCC 208821 (CO-ADD:FG_002); MIC in YNB media using NBS plates, by Resazurin OD(600-570)

MIC (Cryptococcus neoformans)	MIC (Staphylococcus aureus)	MIC (Escherichia coli)	MIC (Klebsiella pneumoniae)	MIC (Pseudomonas aeruginosa)	MIC (Acinetobacter baumannii)	MIC (Candida albicans)	Structure (SMILES)	CC50 (HEK293)
> 10 µM	> 10 µM	> 10 µM	> 10 µM	> 10 µM	> 10 µM	> 10 µM	Cc1cc(NC(=O)c2ccc(Oc3ccc(Cl)cc3O)o2)no1	> 10 µM
> 10 µM	> 10 µM	> 10 µM	> 10 µM	> 10 µM	> 10 µM	> 10 µM	Nc1nc2cc(-c3cncc(Oc4ccc(F)cc4)c3)ccc2[nH]1	> 10 µM
> 10 µM	> 10 µM	> 10 µM	> 10 µM	> 10 µM	> 10 µM	> 10 µM	COc1cc(C2=NCCN2)cc2cc(-c3ccc(C4=NCCN4)cc3)oc12	> 10 µM
> 10 µM	> 10 µM	> 10 µM	> 10 µM	> 10 µM	> 10 µM	> 10 µM	Cc1nc(-c2ccccn2)nc(N(C)CCc2ccccc2)c1Cl	> 10 µM
> 10 µM	> 10 µM	> 10 µM	> 10 µM	> 10 µM	> 10 µM	> 10 µM	Cc1ccc2c(c1C)NC(=O)C21NN=C(c2ccccc2)S1 (stereo not drawn)	> 10 µM
> 10 µM	> 10 µM	> 10 µM	> 10 µM	> 10 µM	> 10 µM	> 10 µM	O=C(Nc1nnc(-c2ccc(Cl)cc2)o1)c1cccc(C(F)(F)F)c1	> 10 µM
1.25 µM (≈ 0.504 µg/mL)	1.25 µM (≈ 0.504 µg/mL)	5 µM (≈ 2.02 µg/mL)	10 µM (≈ 4.03 µg/mL)	10 µM (≈ 4.03 µg/mL)	5 µM (≈ 2.02 µg/mL)	2.5 µM (≈ 1.01 µg/mL)	N=C(N)Nc1ccc(-c2ccc(-c3ccc(NC(=N)N)cc3Cl)o2)c(Cl)c1	> 10 µM
> 10 µM	> 10 µM	> 10 µM	> 10 µM	> 10 µM	> 10 µM	> 10 µM	O=C(Nc1ccc2c(c1)B(O)OC2)c1ccccc1C(F)(F)F	> 10 µM
> 10 µM	10 µM (≈ 4.5 µg/mL)	> 10 µM	> 10 µM	> 10 µM	> 10 µM	> 10 µM	NCCN(C(=O)c1ccc(Cl)cc1Cl)c1ccc(OCc2ccc(Cl)cc2)cc1	> 10 µM
> 10 µM	> 10 µM	> 10 µM	> 10 µM	> 10 µM	> 10 µM	> 10 µM	O=C(COc1cccc(F)c1)Nc1nc(-c2ccccn2)cs1	> 10 µM
> 10 µM	> 10 µM	> 10 µM	> 10 µM	> 10 µM	> 10 µM	> 10 µM	COC(=O)Nc1nc2cc(C(=O)c3ccccc3)ccc2[nH]1 [MEBENDAZOLE]	> 10 µM
> 10 µM	> 10 µM	> 10 µM	> 10 µM	> 10 µM	> 10 µM	> 10 µM	CN1CCN(CCCOc2ncc(Nc3ncc(-c4ccc(C(F)(F)F)c(F)c4)nc3C(N)=O)cn2)CC1	> 10 µM
> 10 µM	> 10 µM	> 10 µM	> 10 µM	> 10 µM	> 10 µM	> 10 µM	Oc1c(I)cc(I)c2cccnc12 [IODOQUINOL]	> 10 µM
> 10 µM	> 10 µM	> 10 µM	> 10 µM	> 10 µM	> 10 µM	> 10 µM	Brc1cncc(-c2cc(NCCCn3ccnc3)nc(-c3ccccc3)n2)c1	> 10 µM
> 10 µM	> 10 µM	> 10 µM	> 10 µM	> 10 µM	> 10 µM	> 10 µM	CC(=O)N1CCN(c2ccc(Oc3ccc(Cl)cc3O)cc2)CC1	> 10 µM
> 10 µM	> 10 µM	> 10 µM	> 10 µM	> 10 µM	> 10 µM	> 10 µM	Nc1ccc2ncnc(Nc3ccc(OCc4cccc(F)c4)c(Cl)c3)c2c1	> 10 µM
> 10 µM	> 10 µM	> 10 µM	> 10 µM	> 10 µM	> 10 µM	> 10 µM	C[C@@H]1[C@H](O)[C@@H](C)/C=C/C=C/C=C/C=C/C=C/C=C/C=C/[C@H](O[C@@H]2O[C@H](C)[C@@H](O)[C@H](N)[C@@H]2O)C[C@@H]2O[C@](O)(C[C@@H](O)C[C@@H](O)[C@H](O)CC[C@@H](O)C[C@@H](O)CC(=O)O[C@H]1C)C[C@H](O)[C@H]2C(=O)O [AMPHOTERICIN B]	> 10 µM
> 10 µM	> 10 µM	> 10 µM	> 10 µM	> 10 µM	> 10 µM	> 10 µM	O=C(Nc1ccccc1)c1ccc(-c2cc3ccncc3cc2OC2CCNCC2)s1	> 10 µM
> 10 µM	> 10 µM	> 10 µM	> 10 µM	> 10 µM	> 10 µM	> 10 µM	NC(CC(=O)c1ccc(Cl)cc1Cl)C(Cl)(Cl)Cl (stereo not drawn)	> 10 µM
> 10 µM	> 10 µM	> 10 µM	> 10 µM	> 10 µM	> 10 µM	> 10 µM	O=C(Nc1ccc(C(F)(F)F)c(C(F)(F)F)c1)c1cc(Cl)ccc1O	> 10 µM
> 10 µM	10 µM (≈ 4.03 µg/mL)	> 10 µM	> 10 µM	> 10 µM	> 10 µM	> 10 µM	N=C(N)Nc1ccc(-c2ccc(-c3ccc(N=C(N)N)c(Cl)c3)o2)cc1Cl	> 10 µM
> 10 µM	> 10 µM	> 10 µM	> 10 µM	> 10 µM	> 10 µM	> 10 µM	c1cncc(NCc2ccc(-c3cc4ccncc4cc3OC3CCNCC3)s2)c1	> 10 µM
> 10 µM	10 µM (≈ 3.46 µg/mL)	> 10 µM	> 10 µM	> 10 µM	> 10 µM	> 10 µM	O=C(Nc1nnc(-c2ccc(Cl)s2)o1)c1ccc(Cl)s1	> 10 µM
> 10 µM	0.625 µM (≈ 0.225 µg/mL)	2.5 µM (≈ 0.9 µg/mL)	10 µM (≈ 3.6 µg/mL)	2.5 µM (≈ 0.9 µg/mL)	> 10 µM	> 10 µM	COc1ccc(OC)c(NCc2ccc3nc(N)nc(N)c3c2Cl)c1	> 10 µM
> 10 µM	1.25 µM (≈ 0.531 µg/mL)	> 10 µM	> 10 µM	> 10 µM	> 10 µM	> 10 µM	COc1ccc2nccc(NC(=O)C3CCN(CCc4ccc(Cl)cc4)CC3)c2n1	> 10 µM
> 10 µM	10 µM (≈ 4.38 µg/mL)	> 10 µM	> 10 µM	> 10 µM	> 10 µM	> 10 µM	CC(=O)NCC1CN(c2ccc(-c3ccc(CNCc4cn[nH]n4)cc3)c(F)c2)C(=O)O1 (stereo not drawn)	> 10 µM
> 10 µM	> 10 µM	> 10 µM	> 10 µM	> 10 µM	> 10 µM	> 10 µM	Cc1cc(NCCc2ccccc2)nc(NC(=N)Nc2ccc(Cl)cc2)n1	> 10 µM
> 10 µM	2.5 µM (≈ 0.843 µg/mL)	> 10 µM	> 10 µM	> 10 µM	> 10 µM	> 10 µM	CC(=O)NC[C@@H]1CN(c2ccc(N3CCOCC3)c(F)c2)C(=O)O1	> 10 µM

Structure (SMILES)	MIC (Cryptococcus neoformans)	MIC (Staphylococcus aureus)	MIC (Escherichia coli)	MIC (Klebsiella pneumoniae)	MIC (Pseudomonas aeruginosa)	MIC (Acinetobacter baumannii)	MIC (Candida albicans)	CC50 (HEK293)
CCc1nn(C)c(C(=O)NCc2ccc(Oc3ccc(C)cc3)cc2)c1Cl [TOLFENPYRAD]	10 µM (≈ 3.84 µg/mL)	> 10 µM	> 10 µM	> 10 µM	> 10 µM	> 10 µM	> 10 µM	> 10 µM
CO/C=C(/C(=O)OC)c1ccccc1Oc1cc(Oc2ccccc2C#N)ncn1 [AZOXYSTROBIN]	> 10 µM	> 10 µM	> 10 µM	> 10 µM	> 10 µM	> 10 µM	0.625 µM (≈ 0.252 µg/mL)	> 10 µM
CC[C@@H]([C@H](C)O)n1ncn(-c2ccc(N3CCN(c4ccc(OC[C@@H]5CO[C@@](Cn6cncn6)(c6ccc(F)cc6F)C5)cc4)CC3)cc2)c1=O [POSACONAZOLE]	1.25 µM (≈ 0.876 µg/mL)	> 10 µM	> 10 µM	> 10 µM	> 10 µM	> 10 µM	0.156 µM (≈ 0.11 µg/mL)	> 10 µM
